Source: patent US20060276462A1, “Method of treating cognitive decline due to sleep deprivation and stress” (priority 2003, published 2006)

Experiments:
[1] = system: sleep deprived non-human primates; experiment: Regional glucose utilization (FDG PET) in brain during DMTS task; format: in vivo
Experimental: (§1) In practice, an animal is trained in the DMTS task such that his daily performance variable is relatively constant. This is judged as baseline performance. Once a stable baseline is established, the subject is deprived of sleep for variable periods in order to establish the effect of sleep deprivation on performance. The ability of an AMPA receptor modulator to ameliorate the decline in performance in the DMTS task is assessed by administered of the test compound prior to or during testing after sleep deprivation. If the test compound is administer prior to the beginning of the test session, then the effect of the drug is compared to performance following sleep deprivation on prior or subsequent days of testing. This protocol allows for the co-administration of a metabolic tracer (such as fluorodeoxyglucose labeled with fluorine-18; FDG) so that regional brain activity can be evaluated using Positron Emission Tomography (PET). Alternatively, an intravenous administration of the test compound midway into the DMTS session allows for a within-session evaluation of drug effect.
Positron Emission Tomography (PET) was used in order to examine the extent to which different brain regions were effected by sleep deprivation by measuring the uptake of ^18F-labeled fluorodeoxyglucose (FDG) into cells as a measure of metabolic activity. By this method it was observed that there was a general increase in metabolism across all brain regions on test days that followed sleep deprivation compared to normal baseline test days (FIG. 2).
The absolute values shown in FIG. 2 can be normalized to global brain metabolism (FIG. 3) by the following equation: (ROISD/GSD−ROIBL/GBL)/GBL where ROI mean region of interest, SD means under the condition of sleep deprivation, G means global and BL means under the condition of baseline performance.

[2] = system: sleep deprived non-human primates; experiment: Delayed Match To Sample (DMTS) task after sleep deprivation; format: in vivo; details: for Performance on DMTS Task (% Correct ± sem): Sleep Deprivation + BCM
Text: This task consists of a kind of “heads-up” display wherein the monkey interacts with a computer video display through motions of its hand. […] A fluorescent spot on the back of the monkey's hand is tracked by an overhead camera, and the coordinates of the hand position are proportionally translated into movement of a cursor on the video display. The animal responds to single Sample phase images by placing the cursor inside the image, then after a delay (during which the display is blanked) the animal must select the appropriate Match image (out of 2-6 different images) by placing the cursor inside the image identical to the Sample. Animal performance is scored as correct responses according to length of delay, and complexity of the trial (number of match images). Recent findings have shown that primate hippocampal neurons encode specific features of the task and stimulus, and that strength of the encoding correlates to behavioral success. Recording and on-line analysis of hippocampal neural activity allows tracking of the animal's cognitive performance under various experimental conditions. Two additional measures (eye and limb movement tracking) along with recording of movement sensitive neurons in hippocampus, putamen and motor cortex provide assessment of attention and ability to perform directed motor movements. Thus, it is possible to distinguish behavioral errors due to inattention or slow movements from those caused by inappropriate cognitive processing of the task information.
as §1

[3] = system: AMPA receptor; details: cited from earlier work

SMILES: O=C(c1ccc2nonc2c1)N1CCOCC1 [BCM, 1-(Benzofurazan-5-ylcarbonyl)morpholine]
- Metabolism (absolute uptake of FDG) in all brain regions ([1]; BCM following sleep deprivation, compared to vehicle administration, FIG. 2): reduced compared to vehicle administration
- Metabolism (uptake of FDG) in several brain regions relative to normal ([1]; BCM following sleep deprivation, FIG. 2): near normal levels
- Energy demand of the brain to perform the DMTS task (FDG uptake normalized to global brain metabolism) ([1]; FIG. 3, normalized data): reduction in energy demand
- Effect on the performance deficit in DMTS task caused by sleep deprivation ([2]; 0.8 mg/kg (iv), single night of sleep deprivation): completely reversed the performance deficit
- Performance compared to baseline ([2]; Subject 1, 0.8 mg/kg (iv) after sleep deprivation): enhanced performance compared to baseline
- Performance on DMTS Task (% Correct ± sem) ([2]; Subject No. 1, 0.8 mg/kg (iv), baseline 81 ± 2, sleep deprivation 65 ± 1): 87 ± 2 % Correct
- Performance on DMTS Task (% Correct ± sem) ([2]; Subject No. 2, 0.8 mg/kg (iv), baseline 81 ± 2, sleep deprivation 67 ± 4): 83 ± 3 % Correct
- Latencies to respond in the Match phase ([2]; drug administration after sleep deprivation, FIG. 1): not effected

SMILES: O=C(c1ccc2nccnc2c1)N1CCCCC1 [CX516, 1-(Quinoxaline-6-ylcarbonyl)piperidine]
- Improving performance in DMTS task ([2]; in vivo): effective at improving performance

SMILES: COc1ccc(C(=O)N2CCCC2=O)cc1 [Aniracetam]
- Mean open time of the AMPA receptor channel [3]: increase the mean open time
- Amplitude of the synaptic current ([3]; mirrored in the field EPSP): increases the amplitude
- Duration of the synaptic current ([3]; mirrored in the field EPSP): prolongs its duration
